Tested on: fluorescently-labeled cell wall material
Experiment: EnzChek Lysozyme Assay of covalently grafted lysozyme
Format: biochemical
Settings: one hour at 37 °C, compared with lysozyme standard dilution series (Figure 5)
Protocol: After covalently grafting lysozyme to a small block of carboxy monolith polymeric matrix, the sample was placed into a solution of fluorescently-labeled cell wall material (EnzChek® Lysozyme Assay Kit) and incubated for one hour at 37 °C in a plate reader, along with a lysozyme standard dilution series.
A fresh solution of 160 mg/mL EDAC stock in dry DMSO was prepared. A lysozyme mix was prepared from 20 µL of a 10 mg/mL solution of lysozyme in 1x PBS, 28 µL of a 200 mM MES solution at pH 7.0, and 15 µL water.
7 µL 160 mg/mL EDAC was spotted onto a single 20 mg disc formed from monolith material, (1:2:1 TEGDMA:EGDMA:HEMA plus 2.0% MAA). The prepared lysozyme mix (63 µL) was then added and the sample incubated at room temperature for 1 h. A glycine solution (10 µl; 30 mg/mL solution in 100 mM MES solution at pH 7.0) was then added and the sample incubated for 15 min at room temperature. The disc was then rinsed in water and stored at 4 °C until use.
To test the activity of the immobilized enzyme, a lysozyme-coupled disc and an untreated control disc were each cut into equal 1/8 size pie-shaped segments. Two pieces of each were then added to two wells of a microwell plate and lysozyme substrate was added. […] Fluorescence was read at regular intervals to determine the extent of carbohydrate breakdown and consequent lysozyme activity.

Substance: lysozyme chip: Lysozyme covalently grafted with EDAC to carboxy monolith disc (1:2:1 TEGDMA:EGDMA:HEMA plus 2.0% MAA)
- final fluorescence signal intensity: greater than the highest standard
